What all share (test): Ki determination, non-radiometric ADP-Glo assay (Proqinase GmbH)
Common to all, as to format: biochemical
Background: ADP-Glo first removes unused ATP, then detects ADP through luciferase.

One assay concerns the target T1, PI3K p110α (Homo sapiens, UniProt P42336).
T1 construct: assay run at Proqinase GmbH
An excerpt: (§1) Biochemical activity against class I PI3K isoforms was confirmed by either Ki determination using the non-radiometric ADP-Glo™ assay (Promega, Madison, Wis., USA) at Proqinase GmbH, or IC50 determination using the HTRF biochemical assay at Reaction Biology Corp.

The target of the next assay is T2, PI3K p110γ (Homo sapiens, UniProt P48736).
T2 construct: assay run at Proqinase GmbH
Text: as §1

In the next assay the target is T3, PI3K p110δ (Homo sapiens, UniProt O00329).
T3 construct: assay run at Proqinase GmbH
Text: as §1

A further assay has as its target T4, PI3K p110β (Homo sapiens, UniProt P42338).
T4 construct: assay run at Proqinase GmbH
Text: as §1

T3 sequence (O00329 whole entry): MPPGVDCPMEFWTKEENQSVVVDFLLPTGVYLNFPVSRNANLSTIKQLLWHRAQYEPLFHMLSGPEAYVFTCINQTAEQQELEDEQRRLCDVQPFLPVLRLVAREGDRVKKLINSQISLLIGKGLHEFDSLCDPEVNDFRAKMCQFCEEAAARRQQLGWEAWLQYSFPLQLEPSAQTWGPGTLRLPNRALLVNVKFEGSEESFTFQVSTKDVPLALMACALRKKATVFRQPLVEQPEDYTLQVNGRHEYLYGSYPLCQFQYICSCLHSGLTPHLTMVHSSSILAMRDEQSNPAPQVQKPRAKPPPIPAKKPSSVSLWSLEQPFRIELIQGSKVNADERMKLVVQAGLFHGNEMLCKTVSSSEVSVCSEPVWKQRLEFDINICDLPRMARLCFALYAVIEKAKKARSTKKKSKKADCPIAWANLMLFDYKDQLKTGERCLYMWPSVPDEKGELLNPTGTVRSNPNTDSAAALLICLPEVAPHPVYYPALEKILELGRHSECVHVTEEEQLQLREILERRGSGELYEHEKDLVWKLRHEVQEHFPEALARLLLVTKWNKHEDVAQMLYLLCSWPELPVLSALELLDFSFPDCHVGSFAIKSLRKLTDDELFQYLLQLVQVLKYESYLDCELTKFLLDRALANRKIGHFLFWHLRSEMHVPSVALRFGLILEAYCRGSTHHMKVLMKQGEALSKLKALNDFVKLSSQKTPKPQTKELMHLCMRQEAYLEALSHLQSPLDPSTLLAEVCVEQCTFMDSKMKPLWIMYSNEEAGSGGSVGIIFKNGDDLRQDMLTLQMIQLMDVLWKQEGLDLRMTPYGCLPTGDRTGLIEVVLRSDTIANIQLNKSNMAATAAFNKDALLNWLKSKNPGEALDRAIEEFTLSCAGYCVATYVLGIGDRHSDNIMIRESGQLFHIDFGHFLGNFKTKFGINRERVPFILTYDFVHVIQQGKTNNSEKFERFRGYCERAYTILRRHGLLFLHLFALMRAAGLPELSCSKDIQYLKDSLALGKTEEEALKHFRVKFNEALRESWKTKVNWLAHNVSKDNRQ
T3 sequence (P27986 whole entry partner): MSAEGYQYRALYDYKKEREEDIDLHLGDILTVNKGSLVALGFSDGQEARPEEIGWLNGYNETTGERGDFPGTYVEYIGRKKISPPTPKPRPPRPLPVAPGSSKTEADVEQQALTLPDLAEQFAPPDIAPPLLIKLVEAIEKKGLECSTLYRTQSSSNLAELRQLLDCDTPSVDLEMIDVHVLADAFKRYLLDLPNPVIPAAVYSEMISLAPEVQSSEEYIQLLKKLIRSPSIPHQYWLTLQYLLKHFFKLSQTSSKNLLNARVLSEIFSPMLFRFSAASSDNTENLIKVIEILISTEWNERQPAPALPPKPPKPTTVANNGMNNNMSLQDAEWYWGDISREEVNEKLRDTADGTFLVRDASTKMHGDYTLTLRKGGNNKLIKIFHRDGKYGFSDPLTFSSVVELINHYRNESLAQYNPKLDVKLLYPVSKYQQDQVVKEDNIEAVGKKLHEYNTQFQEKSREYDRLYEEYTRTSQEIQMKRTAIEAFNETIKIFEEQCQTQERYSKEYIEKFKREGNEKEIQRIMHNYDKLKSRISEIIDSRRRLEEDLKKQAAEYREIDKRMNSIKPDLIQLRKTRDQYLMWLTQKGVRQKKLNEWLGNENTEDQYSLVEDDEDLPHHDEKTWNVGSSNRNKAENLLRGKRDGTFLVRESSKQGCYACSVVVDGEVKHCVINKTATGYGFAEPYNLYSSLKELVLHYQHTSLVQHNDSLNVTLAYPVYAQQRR
T4 sequence (P42338 whole entry): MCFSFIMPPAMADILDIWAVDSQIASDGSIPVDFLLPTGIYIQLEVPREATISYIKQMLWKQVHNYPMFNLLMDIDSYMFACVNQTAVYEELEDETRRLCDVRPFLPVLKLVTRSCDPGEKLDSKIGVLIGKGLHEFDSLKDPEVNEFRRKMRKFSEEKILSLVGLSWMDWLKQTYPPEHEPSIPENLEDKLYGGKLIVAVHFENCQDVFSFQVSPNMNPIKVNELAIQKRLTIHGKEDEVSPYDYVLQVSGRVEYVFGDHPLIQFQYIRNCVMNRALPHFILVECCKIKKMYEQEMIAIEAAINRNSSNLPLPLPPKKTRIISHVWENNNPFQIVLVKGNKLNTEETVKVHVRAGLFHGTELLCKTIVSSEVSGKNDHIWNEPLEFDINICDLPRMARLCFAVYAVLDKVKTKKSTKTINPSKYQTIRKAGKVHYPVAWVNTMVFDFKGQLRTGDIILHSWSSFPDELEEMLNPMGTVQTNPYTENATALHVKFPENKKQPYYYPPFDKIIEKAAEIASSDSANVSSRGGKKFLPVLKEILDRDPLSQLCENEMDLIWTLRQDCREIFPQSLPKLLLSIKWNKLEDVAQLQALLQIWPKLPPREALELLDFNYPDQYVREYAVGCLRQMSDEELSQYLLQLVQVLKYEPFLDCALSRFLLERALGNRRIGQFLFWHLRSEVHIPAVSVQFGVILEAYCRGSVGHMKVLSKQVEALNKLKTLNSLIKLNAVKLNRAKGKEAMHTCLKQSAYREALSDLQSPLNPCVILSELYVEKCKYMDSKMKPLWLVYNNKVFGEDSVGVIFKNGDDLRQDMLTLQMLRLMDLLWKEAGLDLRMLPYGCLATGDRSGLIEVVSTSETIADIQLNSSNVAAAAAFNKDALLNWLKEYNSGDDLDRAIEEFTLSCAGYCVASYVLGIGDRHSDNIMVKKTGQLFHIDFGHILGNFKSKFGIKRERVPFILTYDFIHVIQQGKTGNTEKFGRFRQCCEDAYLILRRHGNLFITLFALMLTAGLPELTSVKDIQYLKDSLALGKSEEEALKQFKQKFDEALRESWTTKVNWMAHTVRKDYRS
T4 sequence (P27986 whole entry partner): as the sequence (P27986 whole entry partner) above
T1 sequence (P42336 whole entry): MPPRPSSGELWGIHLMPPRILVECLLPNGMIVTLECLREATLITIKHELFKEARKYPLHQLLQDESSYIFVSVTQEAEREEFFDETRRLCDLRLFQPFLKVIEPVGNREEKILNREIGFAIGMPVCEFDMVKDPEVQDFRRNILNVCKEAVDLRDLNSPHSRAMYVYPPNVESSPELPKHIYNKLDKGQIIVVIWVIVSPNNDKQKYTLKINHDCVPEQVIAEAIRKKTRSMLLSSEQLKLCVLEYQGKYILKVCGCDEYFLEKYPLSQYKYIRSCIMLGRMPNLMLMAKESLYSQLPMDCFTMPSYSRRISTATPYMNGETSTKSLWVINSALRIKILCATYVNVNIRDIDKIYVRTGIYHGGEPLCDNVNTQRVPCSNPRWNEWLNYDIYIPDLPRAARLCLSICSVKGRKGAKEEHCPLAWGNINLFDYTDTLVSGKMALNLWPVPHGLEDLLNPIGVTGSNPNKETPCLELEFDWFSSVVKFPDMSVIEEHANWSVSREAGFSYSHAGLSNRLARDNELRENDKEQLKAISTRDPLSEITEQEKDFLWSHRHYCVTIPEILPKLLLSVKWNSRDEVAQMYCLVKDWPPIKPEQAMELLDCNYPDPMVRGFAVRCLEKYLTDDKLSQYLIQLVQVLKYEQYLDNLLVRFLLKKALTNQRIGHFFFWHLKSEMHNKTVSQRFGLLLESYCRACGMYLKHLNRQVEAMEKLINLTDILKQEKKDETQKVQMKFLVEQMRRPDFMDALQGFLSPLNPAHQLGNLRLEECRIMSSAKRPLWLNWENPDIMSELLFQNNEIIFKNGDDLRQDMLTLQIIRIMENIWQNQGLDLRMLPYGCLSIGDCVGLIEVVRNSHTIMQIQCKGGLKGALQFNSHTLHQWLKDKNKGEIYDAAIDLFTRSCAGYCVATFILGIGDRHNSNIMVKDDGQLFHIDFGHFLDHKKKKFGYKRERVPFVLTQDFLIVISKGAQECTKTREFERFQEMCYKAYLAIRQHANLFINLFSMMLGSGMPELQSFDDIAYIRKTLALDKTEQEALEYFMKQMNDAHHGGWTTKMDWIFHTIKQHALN
T1 sequence (P27986 whole entry partner): as the sequence (P27986 whole entry partner) above
T2 sequence (P48736 whole entry): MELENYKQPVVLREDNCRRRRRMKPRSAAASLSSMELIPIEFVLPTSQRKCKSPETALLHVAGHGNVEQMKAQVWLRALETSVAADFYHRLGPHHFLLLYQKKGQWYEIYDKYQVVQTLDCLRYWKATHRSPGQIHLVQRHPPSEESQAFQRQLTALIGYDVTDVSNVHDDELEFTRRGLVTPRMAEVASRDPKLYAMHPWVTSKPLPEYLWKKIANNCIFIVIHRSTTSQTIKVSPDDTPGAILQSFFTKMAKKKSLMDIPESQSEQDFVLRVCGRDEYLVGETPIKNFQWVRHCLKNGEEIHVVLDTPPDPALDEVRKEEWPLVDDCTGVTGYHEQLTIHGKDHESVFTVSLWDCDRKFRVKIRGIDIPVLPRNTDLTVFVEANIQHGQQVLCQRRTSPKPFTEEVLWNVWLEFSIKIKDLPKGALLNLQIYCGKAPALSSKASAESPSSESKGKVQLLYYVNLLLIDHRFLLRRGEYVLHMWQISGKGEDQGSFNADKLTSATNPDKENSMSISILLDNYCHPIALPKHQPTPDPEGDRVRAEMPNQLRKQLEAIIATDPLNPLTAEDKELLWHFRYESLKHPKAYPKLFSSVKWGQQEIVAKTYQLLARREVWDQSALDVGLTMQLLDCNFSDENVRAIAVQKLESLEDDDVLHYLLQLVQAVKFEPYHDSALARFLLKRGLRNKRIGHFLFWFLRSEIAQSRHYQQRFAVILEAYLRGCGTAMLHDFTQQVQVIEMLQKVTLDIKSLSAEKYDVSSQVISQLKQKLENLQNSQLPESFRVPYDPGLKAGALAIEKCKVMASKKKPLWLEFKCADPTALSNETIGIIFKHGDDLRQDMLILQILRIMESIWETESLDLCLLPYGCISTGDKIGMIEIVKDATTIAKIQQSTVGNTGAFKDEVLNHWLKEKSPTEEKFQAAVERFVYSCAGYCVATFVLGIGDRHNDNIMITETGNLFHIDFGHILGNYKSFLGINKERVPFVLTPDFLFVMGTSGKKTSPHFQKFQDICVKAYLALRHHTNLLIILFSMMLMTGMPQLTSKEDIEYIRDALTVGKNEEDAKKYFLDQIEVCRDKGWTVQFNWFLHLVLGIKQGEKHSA

Turning to `O=S1(=O)CCN(Cc2cnc3oc4c(N5CCOCC5)nc(-c5cccc6[nH]ccc56)nc4c3c2)CC1` [Example A, 4-{[4-(1H-Indol-4-yl)-6-(morpholin-4-yl)-8-oxa-3,5,10-triazatricyclo[7.4.0.0^2,7]trideca-1(13),2(7),3,5,9,11-hexaen-12-yl]methyl]-1λ^6-thiomorpholine-1,1-dione], the Ki at PI3K p110α is 1000 to 10000 nM; on PI3K p110γ, above 10000 nM; on PI3K p110δ, at most 500 nM; on PI3K p110β it was at most 500 nM.

In the case of `Cc1cc2c(-c3nc(N4CCOCC4)c4oc5ncc(CN6CC[S+]([O-])CC6)cc5c4n3)cccc2[nH]1` [Example AG, 4-{[4-(2-methyl-1H-indol-4-yl)-6-(morpholin-4-yl)-8-oxa-3,5,10-triazatricyclo[7.4.0.0^2^,7]trideca-1(13),2(7),3,5,9,11-hexaen-12-yl]methyl}-1λ^4-thiomorpholin-1-one], the Ki at PI3K p110α was 500 to 1000 nM; at PI3K p110γ, 1000 to 10000 nM; on PI3K p110δ, at most 500 nM; on PI3K p110β, at most 500 nM.

On to `[O-][S+]1CCN(Cc2cnc3oc4c(N5CCOCC5)nc(-c5cccc6[nH]ccc56)nc4c3c2)CC1` [Example AH, 4-{[4-(1H-indol-4-yl)-6-(morpholin-4-yl)-8-oxa-3,5,10-triazatricyclo[7.4.0.0^2^,7]trideca-1(13),2(7),3,5,9,11-hexaen-12-yl]methyl}-1λ^4-thiomorpholin-1-one], for which the inhibition constant (Ki) on PI3K p110α was 1000 to 10000 nM; on PI3K p110γ, above 10000 nM; at PI3K p110δ, at most 500 nM; on PI3K p110β it was at most 500 nM.

Turning to `COc1ccc2c(c1-c1nc(N3CCOCC3)c3oc4ncc(CN5CC[S+]([O-])CC5)cc4c3n1)CCN2` [Example AI, 4-{[4-(5-Methoxy-2,3-dihydro-1H-indol-4-yl)-6-(morpholin-4-yl)-8-oxa-3,5,10-triazatricyclo[7.4.0.0^2^,7]trideca-1(13),2(7),3,5,9,11-hexaen-12-yl]methyl}-1λ^4-thiomorpholin-1-one], the Ki is above 10000 nM on PI3K p110α, above 10000 nM at PI3K p110γ, at most 500 nM on PI3K p110δ and 1000 to 10000 nM at PI3K p110β.

Take `[O-][S+]1CCN(Cc2cnc3oc4c(N5CCOCC5)nc(-c5cccc6[nH]cc(F)c56)nc4c3c2)CC1` [Example AJ, 4-{[4-(3-fluoro-1H-indol-4-yl)-6-(morpholin-4-yl)-8-oxa-3,5,10-triazatricyclo[7.4.0.0^2^,7]trideca-1(13),2(7),3,5,9,11-hexaen-12-yl]methyl}-1λ^4-thiomorpholin-1-one]: the Ki on PI3K p110α is above 10000 nM; at PI3K p110γ, above 10000 nM; at PI3K p110δ, at most 500 nM; on PI3K p110β it was 1000 to 10000 nM.

Take `[O-][S+]1CCN(Cc2cnc3sc4c(N5CCOCC5)nc(-c5cccc6[nH]ccc56)nc4c3c2)CC1` [Example AK, 4-{[4-(1H-Indol-4-yl)-6-(morpholin-4-yl)-8-thia-3,5,10-triazatricyclo[7.4.0.0^2^,7]trideca-1(9),2,4,6,10,12-hexaen-12-yl]methyl}-1λ^4-thiomorpholin-1-one]: the Ki at PI3K p110α was above 10000 nM; on PI3K p110γ, above 10000 nM; on PI3K p110δ, 1000 to 10000 nM; on PI3K p110β it was 1000 to 10000 nM.

In the case of `Cc1c[nH]c2cccc(-c3nc(N4CCOCC4)c4oc5ncc(CN6CC[S+]([O-])CC6)cc5c4n3)c12` [Example AL, 4-{[4-(3-Methyl-1H-indol-4-yl)-6-(morpholin-4-yl)-8-oxa-3,5,10-triazatricyclo[7.4.0.0^2^,7]trideca-1(13),2(7),3,5,9,11-hexaen-12-yl]methyl}-1λ^4-thiomorpholin-1-one], the inhibition constant (Ki) on PI3K p110α is above 10000 nM; at PI3K p110γ, above 10000 nM; on PI3K p110δ, 1000 to 10000 nM; on PI3K p110β, above 10000 nM.

In the case of `[O-][S+]1CCN(Cc2cnc3oc4c(N5CCOCC5)nc(-c5cc(Cl)cc6[nH]ccc56)nc4c3c2)CC1` [Example AM, 4-{[4-(6-Chloro-1H-indol-4-yl)-6-(morpholin-4-yl)-8-oxa-3,5,10-triazatricyclo[7.4.0.0^2^,7]trideca-1(13),2(7),3,5,9,11-hexaen-12-yl]methyl}-1λ^4-thiomorpholin-1-one], the inhibition constant Ki on PI3K p110α was above 10000 nM; at PI3K p110γ, above 10000 nM; at PI3K p110δ, 1000 to 10000 nM; on PI3K p110β, above 10000 nM.

Take `N#Cc1c[nH]c2cccc(-c3nc(N4CCOCC4)c4oc5ncc(CN6CC[S+]([O-])CC6)cc5c4n3)c12` [Example AN, 4-[6-(morpholin-4-yl)-12-[(1-oxo-1λ^4-thiomorpholin-4-yl)methyl]-8-oxa-3,5,10-triazatricyclo[7.4.0.0^2,^7]trideca-1(13),2(7),3,5,9,11-hexaen-4-yl]-1H-indole-3-carbonitrile]: the Ki on PI3K p110α, at PI3K p110γ, on PI3K p110δ and at PI3K p110β was above 10000 nM in each case.

In the case of `CN(CCS(C)(=O)=O)Cc1cnc2oc3c(N4CCOCC4)nc(-c4cccc5[nH]ccc45)nc3c2c1` [Example C, {[4-(1H-Indol-4-yl)-6-(morpholin-4-yl)-8-oxa-3,5,10-triazatricyclo[7.4.0.0^2,7]trideca-1(13),2(7),3,5,9,11-hexaen-12-yl]methyl}(2-methanesulfonylethyl)methylamine], the inhibition constant (Ki) on PI3K p110α was at most 500 nM; on PI3K p110γ, 1000 to 10000 nM; at PI3K p110δ, at most 500 nM; on PI3K p110β, at most 500 nM.

Take `[O-][S+]1CCN(Cc2cnc3oc4c(N5CCOCC5)nc(-c5cc(F)cc6[nH]ccc56)nc4c3c2)CC1` [Example D]: the inhibitory constant (Ki) is above 10000 nM on PI3K p110α, above 10000 nM on PI3K p110γ, at most 500 nM at PI3K p110δ and at most 500 nM on PI3K p110β.

In the case of `[O-][S+]1CCN(Cc2cnc3oc4c(N5CCOCC5)nc(-c5c(F)ccc6[nH]ccc56)nc4c3c2)CC1` [Example E], the inhibition constant (Ki) is 1000 to 10000 nM on PI3K p110α, 1000 to 10000 nM at PI3K p110γ, at most 500 nM on PI3K p110δ and at most 500 nM at PI3K p110β.

Take `[O-][S+]1CCN(Cc2cnc3oc4c(N5CCOCC5)nc(-c5cc(C(F)(F)F)cc6[nH]ccc56)nc4c3c2)CC1` [Example F]: the inhibition constant Ki on PI3K p110α, on PI3K p110γ, on PI3K p110δ and on PI3K p110β was above 10000 nM each time.

On to `N=S1(=O)CCN(Cc2cnc3oc4c(N5CCOCC5)nc(-c5cccc6[nH]ccc56)nc4c3c2)CC1` [Example G], for which the inhibitory constant (Ki) is 500 to 1000 nM on PI3K p110α, 1000 to 10000 nM on PI3K p110γ, at most 500 nM at PI3K p110δ and at most 500 nM at PI3K p110β.

Consider `C[C@H](c1cnc2oc3c(N4CCOCC4)nc(-c4cccc5[nH]ccc45)nc3c2c1)N1CCS(=O)(=O)CC1` [Example H, 4-[(1R)-1-[4-(1H-Indol-4-yl)-6-(morpholin-4-yl)-8-oxa-3,5,10-triazatricyclo[7.4.0.0^2,7]trideca-1(13),2,4,6,9,11-hexaen-12-yl]ethyl]-1λ^6-thiomorpholine-1,1-dione], for which the Ki is 500 to 1000 nM at PI3K p110α, 1000 to 10000 nM at PI3K p110γ, at most 500 nM at PI3K p110δ and at most 500 nM on PI3K p110β.

With `C[C@@H](c1cnc2oc3c(N4CCOCC4)nc(-c4cccc5[nH]ccc45)nc3c2c1)N1CCS(=O)(=O)CC1` [Example I, 4-[(1S)-1-[4-(1H-Indol-4-yl)-6-(morpholin-4-yl)-8-oxa-3,5,10-triazatricyclo[7.4.0.0^2,7]trideca-1(13),2,4,6,9,11-hexaen-12-yl]ethyl]-1λ^6-thiomorpholine-1,1-dione], the Ki on PI3K p110α is at most 500 nM; at PI3K p110γ, above 10000 nM; at PI3K p110δ it was at most 500 nM; at PI3K p110β it was at most 500 nM.

The term Ki denotes a measure of affinity in units of concentration, obtained from inhibition or displacement. A lower Ki goes with tighter binding.

The values are drawn from US10442815B2, “Tricyclic heterocyclic compounds as phosphoinositide 3-kinase inhibitors” (Karus Therapeutics Limited, priority 2015, dated 2019).
